This series in a line: Plasma exposure after oral administration of formulations in rats (LC-MS/MS, WinNonlin). As to the method: In this study, the exposure and distribution of darunavir and efavirenz were evaluated following oral administration in male Sprague-Dawley rats. Four cohorts of 10 rats each were used in this study. The first cohort involved darunavir using the disclosed formulations and the second cohort darunavir in a control formulation. The third cohort involved efavirenz using the disclosed formulations and the fourth cohort efavirenz in a control formulation.
Formulations were administered orally (PO) at 10 mg/kg of darunavir or efavirenz. Following dosing, blood, urine and fecal samples were collected up to 8-hour post dose (groups 1, 3, 5, and 7) or 24-hour post dose (groups 2, 4, 6, and 8). Brain tissue was collected at 8 hours or 24 hours, following the 8 hour or 24-hour urine and feces sample collection. Plasma, urine, feces, and brain tissue concentrations of the analytes were determined by LC-MS/MS. Plasma pharmacokinetic parameters were determined using WinNonlin (v8.0) software.
Plasma, urine, feces, and brain tissue samples were extracted and analyzed using the methods described as follows.
Analytical stock solutions (1.00 mg/mL of the free drug) were prepared in DMSO. Sample Homogenization Brain tissue and feces samples were homogenized with a Virsonic 100 ultrasonic homogenizer. Each brain tissue sample was first weighed, and then an appropriate volume of 20:80 methanol:water was added to make a 2 mL/gram sample. Samples were then homogenized on ice, and stored frozen until analysis. Feces samples were homogenized with 20:80 MeOH:water (8 mL/gram of tissue) prior to extraction. Standard Preparation (Plasma, Urine, and Brain) Standards were prepared in rat plasma containing sodium heparin as the anticoagulant, or in blank tissue homogenate. Working solutions were prepared in 50:50 acetonitrile:water. […] Diluted urine samples were quantified against the rat plasma calibration curve. Brain and feces tissue homogenates were quantified against calibration curves prepared in matched blank tissue homogenate.

Structures are written as SMILES.

Take `CC(C)CN(C[C@@H](O)[C@H](Cc1ccccc1)NC(=O)O[C@H]1CO[C@H]2OCC[C@H]21)S(=O)(=O)c1ccc(N)cc1` [darunavir]: the “plasma concentration of disclosed compositions versus control formulations” value (disclosed compositions compared with compositions without the bioavailability agents) is recorded as “double”. The average plasma concentration result (test animals (disclosed test formulation), at 1 hour) is given as “approximately 306 ng/mL”.
Turning to `O=C1Nc2ccc(Cl)cc2[C@@](C#CC2CC2)(C(F)(F)F)O1` [efavirenz], the “plasma concentration of disclosed compositions versus control formulations” value (rat, in vivo) is recorded as “higher levels”.

(Values after US11311559B2, “Compositions and methods for enhanced delivery of antiviral agents” (POVIVA CORP., priority 2020, dated 2022).)
